Laboratory results from patent US6875788B2, “Imidazoline compounds” (Les Laboratoires Servier, priority 2002, dated 2005).

What was measured:
[1] = biological target: T1, serotonin reuptake sites (Rattus norvegicus, UniProt P31652); experiment: Affinity for serotonin reuptake sites, competition with [3H]-paroxetine on rat frontal cortex membranes; type: binding; settings: 0.25 nM [3H]-paroxetine, 2 hours, 25° C.
T1 construct: The membranes from the rat frontal cortex are prepared and incubated in triplicate; from tissue; host or cells: rat frontal cortex membranes
Method: The affinity of the compounds of the invention was determined by competition experiments with [^3H]-paroxetine. The membranes from the rat frontal cortex are prepared and incubated in triplicate for 2 hours, at 25° C., with 0.25 nM [^3H]-paroxetine and the cold ligand in a final volume of 0.4 ml. The incubation buffer contains 50 mM TRIS-HCl (pH 7.4), 120 mM NaCl and 5 mM KCl. The non-specific binding is determined using 10 μM citalopram. At the end of incubation, the medium is filtered through filters and washed three times with 5 ml of cooled buffer. The radioactivity retained on the filters is determined by liquid scintillation counting. The binding isotherms are analysed by non-linear regression in order to determine the IC50 values.

[2] = tested on: non-diabetic Wistar rats; experiment: Oral glucose tolerance test (OGTT), hypoglycaemic activity in non-diabetic Wistar rats; type: in vivo, rat; settings: 10 mg/kg per os 1 hour before OGTT (glucose 2 g/kg per os)
[3] = tested on: obese ob/ob mouse; experiment: Hypolipaemic activity in the obese ob/ob mouse; type: in vivo; settings: oral route 30 mg/kg/day for 4 days, treated vs. untreated animals
Method: The products of the invention were tested in vivo in the obese ob/ob mouse, used as a model of obesity-associated insulin resistance. […] In this model, the compounds of the invention are thus shown also to be powerful hypolipaemics.

[4] = tested on: STZ Wistar rats; experiment: Oral glucose tolerance test (OGTT), hypoglycaemic activity in STZ (streptozotocin) Wistar rats; type: in vivo, rat; settings: 10 mg/kg per os 1 hour before OGTT (glucose 2 g/kg per os)
Method: The hypoglycaemic activity of the compounds of the invention was examined in three-month-old male Wistar rats weighing about 250 g. An experimental diabetes is obtained by the iv injection, under ketamine hydrochloride anaesthesia, of a low dose of streptozotocin (35 mg/kg iv) dissolved in a citrate buffer. Such rats are called STZ rats and are characterised by a slight basal hyperglycaemia, a marked intolerance to glucose and a clear change in the secretion of insulin.
Homeostasis was evaluated by a glucose tolerance test, carried out two weeks after injection with streptozotocin.
(§1) Oral Glucose Tolerance Test (OGTT)
(§2) Glucose is administered per os (2 g/kg) to conscious rats. Blood samples are collected before and 10, 20, 30, 40, 60, 90 and 120 minutes after the glucose administration.
(§3) The product to be tested is administered per os 1 hour before the OGTT, and the control animals receive solvent (gum arabic).

[5] = tested on: Zucker rats; experiment: Oral glucose tolerance test (OGTT), hypoglycaemic activity in Zucker fatty fa/fa rats; type: in vivo, rat; settings: 10 mg/kg per os 1 hour before OGTT (glucose 2 g/kg per os)
Method: Finally, the hypoglycaemic activity was evaluated in “Zucker” rats. “Zucker fatty” fa/fa rats arose following a spontaneous mutation of the 13M strain (Zucker & Zucker, 1961), and are genetically insulin-resistant and obese.
Their obesity can be observed from the age of four weeks, and is thus accompanied by insulin resistance, hyperinsulinaemia and hyperlipidaemia. […] Homeostasis was evaluated likewise by a glucose tolerance test.
as §1, §2, §3

T1 sequence (P31652 whole entry): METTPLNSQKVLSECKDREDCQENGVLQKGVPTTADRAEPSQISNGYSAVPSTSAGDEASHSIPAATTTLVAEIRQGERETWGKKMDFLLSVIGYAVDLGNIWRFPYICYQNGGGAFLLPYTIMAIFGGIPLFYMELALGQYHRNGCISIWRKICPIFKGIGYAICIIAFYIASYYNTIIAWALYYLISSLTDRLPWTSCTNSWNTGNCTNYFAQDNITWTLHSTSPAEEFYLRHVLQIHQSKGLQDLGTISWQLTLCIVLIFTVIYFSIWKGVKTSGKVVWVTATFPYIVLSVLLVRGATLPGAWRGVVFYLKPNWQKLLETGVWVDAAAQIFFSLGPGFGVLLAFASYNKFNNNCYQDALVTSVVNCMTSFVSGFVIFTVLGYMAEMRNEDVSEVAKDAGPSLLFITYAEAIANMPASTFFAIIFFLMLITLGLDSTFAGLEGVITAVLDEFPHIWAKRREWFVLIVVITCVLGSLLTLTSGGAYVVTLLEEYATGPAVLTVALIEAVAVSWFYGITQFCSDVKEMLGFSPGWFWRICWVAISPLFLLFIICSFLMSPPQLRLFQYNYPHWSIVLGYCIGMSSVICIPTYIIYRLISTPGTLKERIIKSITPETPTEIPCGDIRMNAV

Q: Which IC50 [1] does the source give for c1ccc(C(C2=NCCN2)C2CCCCC2)cc1 (stereo not drawn) [2-[cyclohexyl(phenyl)methyl]-4,5-dihydro-1H-imidazole, reference compound] here?
A: Its IC50 is 150 nM.

Q: How did the IC50 [1] turn out when c1cc(C(C2=NCCN2)C2CCCCC2)cs1 (stereo not drawn) [Example 3, 2-[Cyclohexyl(3-thienyl)methyl]-4,5-dihydro-1H-imidazole] was run?
A: The IC50 was 2000 nM.

Q: How did the reduces glycaemia [2] turn out when CC1CNC(C(c2ccsc2)C2CCCCC2)=N1 (stereo not drawn) [Example 6, 2-[Cyclohexyl(3-thienyl)methyl]-4-methyl-4,5dihydro-1H-imidazole] was run?
A: Its reduces glycaemia is 13%.

Q: And the lowers the triglycerides [3]?
A: The lowers the triglycerides was 32%.

Q: What about the reduces glycaemia [4] of the same compound?
A: Its reduces glycaemia is 18%.

Q: What about the reduces glycaemia [5] of the same compound?
A: The reduces glycaemia was 14%.
